Test results as given in US20250136619A1, “HETEROBIFUNCTIONAL COMPOUNDS AND THEIR USE IN TREATING DISEASE” (HALDA THERAPEUTICS OPCO, INC., priority 2021, published 2025).
pIC50, pKd: −log10 of the molar value.

How the values were obtained:
[1] = target: KIF11 (Homo sapiens (Human), UniProt P52732); test: Enzyme-coupled ATPase assay for inhibition of KIF11; type: biochemical; conditions: KIF11 ATPase rate, 1 mM ATP
Protocol: The ATPase rate for Kif11 was monitored using an enzyme-coupled assay. Porcine brain microtubules (Cat #MT002) were purchased from Cytoskeleton (Denver, CO) and polymerized as per manufacturer's instructions and stored at 1 mg/ml at −80° C. GST-tagged Kif11/Eg5 (Cat #EG01-XL) and the Kinesin ELIPA Biochem Kit (Cat #BK060) was also purchased from Cytoskeleton. Taxol, microtubules, 7-methylthioguanosine (MESG), and purine nucleoside phosphorylase (PNP) were added to final concentrations of […], 0.05 mg/mL, […], 1U/m, 1 mM in EPLIA Reaction Buffer and allowed to incubate at room temperature for 15 minutes under rocking. Kif11 was then added at a final concentration of […] and allowed to incubate at room temperature for an additional 15 minutes. Master mix ([…]) was added to a black 384-well plate (Corning 3575), to which […] of DMSO or compound were added to appropriate wells. Plates were incubated at room temperature for 2 hours. ATPase reactions were initiated by addition of 1 mM ATP and monitored by OD340 every 1 minute over the course of 2 hours. The rate of the reaction was taken from the linear part of the resulting curve. IC50 was determined by plotting inhibitor concentration v. ATPase rate.

[2] = target: BTK (Homo sapiens (Human), UniProt Q06187); test: KdELECT assay for binding affinity to BTK
Summary of the method: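 Competition binding of test compound against bead-immobilized biotinylated ligand; kinase as T7 phage fusion or HEK-293-expressed DNA-tagged protein. 11-point 3-fold dilution, 0.9% DMSO final, 1 h room temperature with shaking. Bound kinase eluted with 0.5 μM non-biotinylated ligand and quantified by qPCR; Kd derived.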

[3] = target: BRD4-BD2 (Homo sapiens (Human), UniProt O60885); test: bromoKdELECT assay for binding affinity to BRD4-BD2
Protocol: (§1) Compounds were tested using a bromoKdELECT assay. T7 phage strains displaying bromodomains were grown in parallel in 24-well blocks in an E. coli host derived from the BL21 strain. E. coli were grown to log-phase and infected with T7 phage from a frozen stock (multiplicity of infection=0.4) and incubated with shaking at 32° C. until lysis (90-150 minutes). The lysates were centrifuged (5,000×g) and filtered (0.2 μm) to remove cell debris. Streptavidin-coated magnetic beads were treated with biotinylated small molecule or acetylated peptide ligands for 30 minutes at room temperature to generate affinity resins for bromodomain assays. The liganded beads were blocked with excess biotin and washed with blocking buffer (SeaBlock (Pierce), 1% BSA, 0.05% Tween 20, 1 mM DTT) to remove unbound ligand and to reduce nonspecific phage binding. Binding reactions were assembled by combining bromodomains, liganded affinity beads, and test compounds in 1×binding buffer (17% SeaBlock, 0.33×PBS, 0.04% Tween 20, 0.02% BSA, 0.004% Sodium azide, 7.4 mM DTT). Test compounds were prepared as 1000X stocks in 100% DMSO. Kds were determined using an 11-point 3-fold compound dilution series with one DMSO control point. All compounds for Kd measurements are distributed by acoustic transfer (non-contact dispensing) in 100% DMSO. The compounds were then diluted directly into the assays such that the final concentration of DMSO was 0.09%. All reactions performed in polypropylene 384-well plates. Each was a final volume of 0.02 ml. The assay plates were incubated at room temperature with shaking for 1 hour and the affinity beads were washed with wash buffer (1×PBS, 0.05% Tween 20). The beads were then resuspended in elution buffer (1×PBS, 0.05% Tween 20, 2 μM non-biotinylated affinity ligand) and incubated at room temperature with shaking for 30 minutes. The bromodomain concentration in the eluates was measured by qPCR.

[4] = target: BRD4-BD1 (Homo sapiens (Human), UniProt O60885); test: bromoKdELECT assay for binding affinity to BRD4-BD1
Protocol: as §1

[5] = target: CDK1 (Homo sapiens (Human), UniProt P06493); test: KdELECT assay for binding affinity to CDK1
Protocol: Compounds were tested using a KdELECT assay. Kinase-tagged T7 phage strains were prepared in an E. coli host derived from the BL21 strain. E. coli were grown to log-phase and infected with T7 phage and incubated with shaking at 32° C. until lysis. The lysates were centrifuged and filtered to remove cell debris. The remaining kinases were produced in HEK-293 cells and subsequently tagged with DNA for qPCR detection. Streptavidin-coated magnetic beads were treated with biotinylated small molecule ligands for 30 minutes at room temperature to generate affinity resins for kinase assays. The liganded beads were blocked with excess biotin and washed with blocking buffer (SeaBlock (Pierce), 1% BSA, 0.05% Tween 20, 1 mM DTT) to remove unbound ligand and to reduce non-specific binding. Binding reactions were assembled by combining kinases, liganded affinity beads, and test compounds in 1×binding buffer (20% SeaBlock, 0.17×PBS, 0.05% Tween 20, 6 mM DTT). Test compounds were prepared as 111X stocks in 100% DMSO. Kd values were determined using an 11-point 3-fold compound dilution series with three DMSO control points. All compounds for Kd measurements are distributed by acoustic transfer (non-contact dispensing) in 100% DMSO. The compounds were then diluted directly into the assays such that the final concentration of DMSO was 0.9%. All reactions performed in polypropylene 384-well plate. Each was a final volume of 0.02 mL. The assay plates were incubated at room temperature with shaking for 1 hour and the affinity beads were washed with wash buffer (1×PBS, 0.05% Tween 20). The beads were then re-suspended in elution buffer (1×PBS, 0.05% Tween 20, 0.5 μM nonbiotinylated affinity ligand) and incubated at room temperature with shaking for 30 minutes. The kinase concentration in the eluates was measured by qPCR.

KIF11, sequence (P52732 1-368): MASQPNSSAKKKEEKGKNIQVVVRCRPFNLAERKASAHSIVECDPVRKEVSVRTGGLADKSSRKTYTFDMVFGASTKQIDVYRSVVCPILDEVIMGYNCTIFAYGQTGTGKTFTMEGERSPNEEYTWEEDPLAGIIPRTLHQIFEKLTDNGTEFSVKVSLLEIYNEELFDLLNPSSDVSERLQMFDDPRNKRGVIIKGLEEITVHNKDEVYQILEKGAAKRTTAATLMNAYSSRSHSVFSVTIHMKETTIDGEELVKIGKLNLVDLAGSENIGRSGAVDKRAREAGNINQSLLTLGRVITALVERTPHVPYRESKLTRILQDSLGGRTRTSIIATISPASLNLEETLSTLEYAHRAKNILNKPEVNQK
CDK1, sequence (P06493 whole entry): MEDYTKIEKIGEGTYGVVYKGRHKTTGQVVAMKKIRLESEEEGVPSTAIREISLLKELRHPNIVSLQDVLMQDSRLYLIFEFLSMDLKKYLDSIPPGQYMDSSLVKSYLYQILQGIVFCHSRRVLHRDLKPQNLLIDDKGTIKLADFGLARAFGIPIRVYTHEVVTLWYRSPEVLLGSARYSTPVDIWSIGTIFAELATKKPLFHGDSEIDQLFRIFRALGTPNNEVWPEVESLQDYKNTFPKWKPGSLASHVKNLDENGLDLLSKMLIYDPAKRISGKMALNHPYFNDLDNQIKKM
BTK, sequence (Q06187 whole entry, the tested form may be a part): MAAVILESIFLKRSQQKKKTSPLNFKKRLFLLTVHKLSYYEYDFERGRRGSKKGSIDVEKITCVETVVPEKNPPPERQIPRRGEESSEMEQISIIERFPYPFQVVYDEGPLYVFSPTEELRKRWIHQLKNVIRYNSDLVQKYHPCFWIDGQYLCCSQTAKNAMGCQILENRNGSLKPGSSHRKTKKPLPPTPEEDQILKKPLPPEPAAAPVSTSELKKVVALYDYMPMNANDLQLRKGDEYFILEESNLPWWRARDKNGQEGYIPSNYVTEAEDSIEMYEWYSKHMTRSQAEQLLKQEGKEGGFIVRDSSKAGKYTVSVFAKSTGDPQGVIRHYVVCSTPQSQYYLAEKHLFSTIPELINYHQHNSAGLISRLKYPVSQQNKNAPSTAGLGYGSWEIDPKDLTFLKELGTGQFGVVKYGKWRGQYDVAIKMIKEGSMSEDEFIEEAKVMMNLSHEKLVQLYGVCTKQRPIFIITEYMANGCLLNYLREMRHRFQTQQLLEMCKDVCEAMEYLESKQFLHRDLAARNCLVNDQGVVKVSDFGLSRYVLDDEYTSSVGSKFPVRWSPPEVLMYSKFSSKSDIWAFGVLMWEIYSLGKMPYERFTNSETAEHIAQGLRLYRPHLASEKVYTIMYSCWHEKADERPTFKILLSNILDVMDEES

Row | SMILES | pIC50 [1] | pKd [2] | pKd [3] | pKd [4] | pKd [5]
1 | CN(OCCOCCOCCOCCOCCOCCOCCOCCOCCOC/C=C/C(=O)N1CCC[C@@H](n2nc(-c3ccc(Oc4ccccc4)cc3)c3c(N)ncnc32)C1)C(=O)N1N=C(c2cc(F)ccc2F)SC1(CCCN)c1ccccc1 (stereo partly drawn) [Compound I-53] | 6.30 to 7.30 | > 7.30 | – | – | –
2 | Cc1sc2c(c1C)C(c1ccc(Cl)cc1)=N[C@@H](CC(=O)NCCOCCOCCOc1ccc(C(=O)NC3C(C)(C)C(Oc4ccc(C#N)c(Cl)c4)C3(C)C)cc1)c1nnc(C)n1-2 (stereo partly drawn) [Compound I-32] | – | – | 6.30 to 7.30 | 5.60 to 6.30 | –
3 | CN(C/C=C/C(=O)N1CCC[C@@H](n2nc(-c3ccc(Oc4ccccc4)cc3)c3c(N)ncnc32)C1)CCOCCOCCOCCOCCOCCOCCOCCOCCON(C)C(=O)N1N=C(c2cc(F)ccc2F)SC1(CCCN)c1ccccc1 (stereo partly drawn) [Compound I-54] | > 7.30 | – | – | – | –
4 | Cc1sc2c(c1C)C(c1ccc(Cl)cc1)=N[C@@H](CC(=O)NCCOCCOCCOCCOCCOCCOC/C=C/C(=O)N1CCC[C@@H](n3nc(-c4ccc(Oc5ccccc5)cc4)c4c(N)ncnc43)C1)c1nnc(C)n1-2 [Compound I-26, N-[2-[2-[2-[2-[2-[2-[(E)-4-[(3R)-3-[4-amino-3-(4-phenoxyphenyl)pyrazolo[3,4-d]pyrimidin-1-yl]-1-piperidyl]-4-oxo-but-2-enoxy]ethoxy]ethoxy]ethoxy]ethoxy]ethoxy]ethyl]-2-[(9S)-7-(4-chlorophenyl)-4,5, 13-trimethyl-3-thia-1,8, 11,12-tetrazatricyclo[8.3.0.0^2,6]trideca-2 (6),4,7,10, 12-pentaen-9-yl]acetamide] | – | > 7.30 | > 7.30 | 6.30 to 7.30 | –
5 | NC(=O)c1c(F)cccc1Nc1nc(Nc2ccc(S(=O)(=O)NCCOCCOCCOCCOCCOCCOC/C=C/C(=O)N3CCC[C@@H](n4nc(-c5ccc(Oc6ccccc6)cc5)c5c(N)ncnc54)C3)cc2)ncc1Br [Compound I-15] | – | > 7.30 | – | – | 6.30 to 7.30
6 | CN(C/C=C/C(=O)N1CCC[C@@H](n2nc(-c3ccc(Oc4ccccc4)cc3)c3c(N)ncnc32)C1)CCOCCOCCOCCOCCON(C)C(=O)N1N=C(c2cc(F)ccc2F)SC1(CCCN)c1ccccc1 (stereo partly drawn) [Compound I-50] | > 7.30 | – | – | – | –
7 | CN(C/C=C/C(=O)N1CCC[C@@H](n2nc(-c3ccc(Oc4ccccc4)cc3)c3c(N)ncnc32)C1)CCOCCOCCOCCOCCOCCOCCON(C)C(=O)N1N=C(c2cc(F)ccc2F)SC1(CCCN)c1ccccc1 (stereo partly drawn) [Compound I-52] | > 7.30 | > 7.30 | – | – | –
8 | CCc1cnn2c(NCc3ccc(OCCOCCOCCOCCOCCOCCOCCOCCOCCOC/C=C/C(=O)N4CCC[C@@H](n5nc(-c6ccc(Oc7ccccc7)cc6)c6c(N)ncnc65)C4)nc3)cc(N3CCCC[C@H]3CCO)nc12 [Compound I-47] | – | – | – | – | < 5.60
9 | Cc1sc2c(c1C)C(c1ccc(Cl)cc1)=N[C@@H](CC(=O)NCCCCCCCC/C=C/C(=O)N1CCC[C@@H](n3nc(-c4ccc(Oc5ccccc5)cc4)c4c(N)ncnc43)C1)c1nnc(C)n1-2 [Compound I-28, N—[(E)-11-[(3R)-3-[4-amino-3-(4-phenoxyphenyl)pyrazolo[3,4-d]pyrimidin-1-yl]-1-piperidyl]-11-oxo-undec-9-enyl]-2-[(9S)-7-(4-chlorophenyl)-4,5,13-trimethyl-3-thia-1,8,11,12-tetrazatricyclo[8.3.0.0^2,6]trideca-2 (6),4,7,10,12-pentaen-9-yl]acetamide] | – | 5.60 to 6.30 | 5.60 to 6.30 | < 5.60 | –
10 | Cc1sc2c(c1C)C(c1ccc(Cl)cc1)=N[C@@H](CC(=O)NCCOCCOC/C=C/C(=O)N1CCC[C@@H](n3nc(-c4ccc(Oc5ccccc5)cc4)c4c(N)ncnc43)C1)c1nnc(C)n1-2 [Compound I-24, N-[2-[2-[(E)-4-[(3R)-3-[4-amino-3-(4-phenoxyphenyl)pyrazolo[3,4-d]pyrimidin-1-yl]-1-piperidyl]-4-oxo-but-2-enoxy]ethoxy]ethyl]-2-[(9S)-7-(4-chlorophenyl)-4,5,13-trimethyl-3-thia-1,8,11,12-tetrazatricyclo[8.3.0.02.6]trideca-2 (6),4,7,10,12-pentaen-9-yl]acetamide] | – | > 7.30 | > 7.30 | 6.30 to 7.30 | –
11 | CN(C/C=C/C(=O)N1CCC[C@@H](n2nc(-c3ccc(Oc4ccccc4)cc3)c3c(N)ncnc32)C1)CCCN1CCN(CCCNS(=O)(=O)c2ccc(Nc3ncc(Br)c(Nc4cccc(F)c4C(N)=O)n3)cc2)CC1 [Compound I-18, 2-[[2-[4-[3-[4-[3-[[(E)-4-[(3R)-3-[4-amino-3-(4-phenoxyphenyl)pyrazolo[3,4-d]pyrimidin-1-yl]-1-piperidyl]-4-oxo-but-2-enyl]-methyl-amino]propyl]piperazin-1-yl]propylsulfamoyl]anilino]-5-bromo-pyrimidin-4-yl]amino]-6-fluoro-benzamide] | – | > 7.30 | – | – | > 7.30
12 | Cc1sc2c(c1C)C(c1ccc(Cl)cc1)=N[C@@H](CC(=O)NCCCN1CCN(CCCN(C)C/C=C/C(=O)N3CCC[C@@H](n4nc(-c5ccc(Oc6ccccc6)cc5)c5c(N)ncnc54)C3)CC1)c1nnc(C)n1-2 [Compound I-29, N-[3-[4-[3-[[(E)-4-[(3R)-3-[4-amino-3-(4-phenoxyphenyl)pyrazolo[3,4-d]pyrimidin-1-yl]-1-piperidyl]-4-oxo-but-2-enyl]-methyl-amino]propyl]piperazin-1-yl]propyl]-2-[(9S)-7-(4-chlorophenyl)-4,5, 13-trimethyl-3-thia-1,8, 11,12-tetrazatricyclo[8.3.0.0^2,6]trideca-2 (6),4,7,10,12-pentaen-9-yl]acetamide] | – | > 7.30 | > 7.30 | > 7.30 | –
13 | CN(OCCOCCOCCOCCOCCOC/C=C/C(=O)N1CCC[C@@H](n2nc(-c3ccc(Oc4ccccc4)cc3)c3c(N)ncnc32)C1)C(=O)N1N=C(c2cc(F)ccc2F)SC1(CCCN)c1ccccc1 (stereo partly drawn) [Compound I-49] | 6.30 to 7.30 | – | – | – | –
14 | NC(=O)c1c(F)cccc1Nc1nc(Nc2ccc(S(=O)(=O)NCCOCCOC/C=C/C(=O)N3CCC[C@@H](n4nc(-c5ccc(Oc6ccccc6)cc5)c5c(N)ncnc54)C3)cc2)ncc1Br [Compound I-13, 2-[[2-[4-[2-[2-[(E)-4-[(3R)-3-[4-amino-3-(4-phenoxyphenyl)pyrazolo[3,4-d]pyrimidin-1-yl]-1-piperidyl]-4-oxo-but-2-enoxy]ethoxy]ethylsulfamoyl]anilino]-5-bromo-pyrimidin-4-yl]amino]-6-fluoro-benzamide] | – | 6.30 to 7.30 | – | – | 5.60 to 6.30
15 | CCc1cnn2c(NCc3ccc(OCCOCCOCCOCCOCCN(C)C/C=C/C(=O)N4CCC[C@@H](n5nc(-c6ccc(Oc7ccccc7)cc6)c6c(N)ncnc65)C4)nc3)cc(N3CCCC[C@H]3CCO)nc12 [Compound I-43] | – | > 7.30 | – | – | < 5.60
